Literature values in patent publication US20260297106A1, “SPIROCYCLIC SUBSTITUTED OXOISOINDOLINYL PIPERIDINE-2,6-DIONE COMPOUND” (Bristol-Myers Squibb Company, priority 2023, published 2026).

Tests used:
[1] = test system: highly immunogenic syngeneic tumors; conditions: engineered mouse models; cited from earlier work
T and NK cell = conditions: preclinical and clinical studies; cited from earlier work

In the case of Nc1cccc2c1CN(C1CCC(=O)NC1=O)C2=O (centres unmarked) [lenalidomide], the antitumor immune responses [1] is given as “modestly increase antitumor immune responses” and the “T and NK cell functions” value (T and NK cell) is given as “augment T and NK cell functions”.
